As a reminder, the IC50 is the midpoint of a concentration-inhibition curve.

The assay deals with T1, NPY Y2 receptor (Homo sapiens, UniProt P49146).
T1 construct: endogenous in cells; host or cells: KAN-Ts cells (membrane preparation)
T1 sequence (P49146 1-381): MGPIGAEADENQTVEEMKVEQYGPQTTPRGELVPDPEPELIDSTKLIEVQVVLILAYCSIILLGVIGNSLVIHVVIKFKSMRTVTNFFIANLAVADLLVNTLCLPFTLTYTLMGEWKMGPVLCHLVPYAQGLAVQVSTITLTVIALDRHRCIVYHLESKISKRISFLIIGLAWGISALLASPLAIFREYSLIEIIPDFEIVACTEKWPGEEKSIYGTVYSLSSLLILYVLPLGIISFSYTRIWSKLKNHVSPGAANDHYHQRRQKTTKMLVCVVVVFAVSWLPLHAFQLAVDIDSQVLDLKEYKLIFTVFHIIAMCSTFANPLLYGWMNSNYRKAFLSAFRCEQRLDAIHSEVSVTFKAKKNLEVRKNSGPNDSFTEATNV
Kind of assay: Neuropeptide Y2 radioligand binding assay ([125I]PYY, KAN-Ts cell membranes). As to conditions: membranes of KAN-Ts cells endogenously expressing Y2 receptors; [125I]PYY 80 pM; 1 h at rt; read-out: IC50 (μM), NPY Y2 binding. How it is done: KAN-Ts endogenously expressing Y2 receptors were used for the radioligand binding assay. Cells were grown to confluence on 150 cm^2 tissue culture plates, washed with phosphate-buffered saline (PBS), and scraped into 50 mL tubes. After centrifugation, the supernatant was aspirated, and the pellets frozen and stored at −80° C. Thawed pellets were homogenized with a polytron tissue grinder for 15 sec in 20 mM Tris-HCl, 5 mM EDTA. The homogenate was centrifuged at 800×g for 5 min and the collected supernatant was recentrifuged at 25000×g for 25 min. The resulting pellet was resuspended in binding buffer (20 mM HEPES, 120 mM NaCl, 0.22 mM KH2PO4, 1.3 mM CaCl2, 0.8 mM MgSO4). Membranes were incubated with [^125I]PYY (80 pM) in the presence or absence of test compound for 1 h at rt. The reaction was stopped by filtration through GF/C filter plates pre-soaked in 0.3% polyethylenimine and subsequently washed with Tris 50 mM, 5 mM EDTA buffer. Plates were dried for 1 h in a 55° C. oven, scintillation fluid was added and the radioactivity was counted in a Packard TopCount. Specific binding to the NPY receptor subtypes was determined by radioactivity that was bound in the presence of […] NPY. Each binding experiment was repeated three to eight times, each in duplicate. IC50 values (i.e. concentration of unlabelled peptide or antagonist required to compete for 50% of specific binding to the radioligand) were determined using the GraphPad Prism software (GraphPad Software Inc., San Diego Calif.) with a fit to a sigmoidal dose response curve. Apparent K values were as K=IC50/(1+C/KD), where C is concentration of the radioligand.
With `CCN(CC)C(=O)C(c1ccccc1)N1CCN(c2ccc(-c3noc(CF)n3)cc2F)CC1` (stereo not drawn) [Compound 105, N,N-Diethyl-2-{4-[2-fluoro-4-(5-fluoromethyl-[1,2,4]oxadiazol-3-yl)-phenyl]-piperazin-1-yl}-2-phenyl-acetamide], the IC50 worked out at 0.16 µM.

In the case of `CCN(CC)C(=O)C(c1ccc(F)cc1)N1CCN(c2ccc(-c3nc(C)no3)cc2C#N)CC1` (stereo not drawn) [Compound 262, 2-{4-[2-Cyano-4-(3-methyl-[1,2,4]oxadiazol-5-yl)-phenyl]-piperazin-1-yl}-N,N-diethyl-2-(4-fluoro-phenyl)-acetamide], the IC50 was 0.098 µM.

As for `CCc1noc(-c2ccc(N3CCN(C(C(=O)N(C)C)c4ccccc4)CC3)c(F)c2)n1` (stereo not drawn) [Compound 181, 2-{4-[4-(3-Ethyl-[1,2,4]oxadiazol-5-yl)-2-fluoro-phenyl]-piperazin-1-yl}-N,N-dimethyl-2-phenyl-acetamide], the IC50 came out at 0.53 µM.

In the case of `CCN(CC)C(=O)C(c1ccccc1)N1CCN(c2ccc(-c3ccc(OC)cc3)cc2F)CC1` (stereo not drawn) [Compound 205, N,N-Diethyl-2-[4-(3-fluoro-4′-methoxy-biphenyl-4-yl)-piperazin-1-yl]-2-phenyl-acetamide], the IC50 is 1.9 µM.

As for `CCN(CC)C(=O)C(c1ccccc1)N1CCN(c2ccc(-c3noc(C#N)n3)cc2F)CC1` (stereo not drawn) [Compound 147, 2-{4-[4-(5-Cyano-[1,2,4]oxadiazol-3-yl)-2-fluoro-phenyl]-piperazin-1-yl}-N,N-diethyl-2-phenyl-acetamide], the IC50 came out at 4.1 µM.

`CCN(CC)C(=O)C(c1ccccc1)N1CCN(c2ccc(-c3nc(C(=O)OC)co3)cc2F)CC1` (stereo not drawn) [Compound 129, 2-{4-[4-(Diethylcarbamoyl-phenyl-methyl)-piperazin-1-yl]-3-fluorophenyl}-oxazole-4-carboxylic acid methyl ester]: the IC50 stood at 1.9 µM.

Turning to `CCN(CC)C(=O)C(c1ccccc1)N1CCN(c2ccc(-c3nc(C(C)C)no3)cc2C(N)=O)CC1` (stereo not drawn) [Compound 221, 2-[4-(Diethylcarbamoyl-phenyl-methyl)-piperazin-1-yl]-5-(3-isopropyl-[1,2,4]oxadiazol-5-yl)-benzamide], the IC50 is 2.1 µM.

Consider `CCN(CC)C(=O)C(c1ccccc1)N1CCN(c2ccc(-c3noc(SC)n3)cc2F)CC1` (stereo not drawn) [Compound 177, N,N-Diethyl-2-{4-[2-fluoro-4-(5-methylsulfanyl-[1,2,4]oxadiazol-3-yl)-phenyl]-piperazin-1-yl}-2-phenyl-acetamide], for which the IC50 is 0.51 µM.

Regarding `CCN(CC)C(=O)C(c1ccccc1)N1CCN(c2ccc(-c3nnc(C)o3)cc2F)CC1` (stereo not drawn) [Compound 150, N,N-Diethyl-2-{4-[2-fluoro-4-(5-methyl-[1,3,4]oxadiazol-2-yl)-phenyl]-piperazin-1-yl}-2-phenyl-acetamide], the IC50 was determined as 0.42 µM.

On to `CCN(CC)C(=O)C(c1ccccc1)N1CCN(c2ccc(-c3noc(CC(C)(C)C)n3)cc2F)CC1` (stereo not drawn) [Compound 79, 2-(4-{4-[5-(2,2-Dimethyl-propyl)-[1,2,4]oxadiazol-3-yl]-2-fluoro-phenyl}-piperazin-1-yl)-N,N-diethyl-2-phenyl-acetamide], for which the IC50 worked out at 6.3 µM.

Turning to `CCN(CC)C(=O)C(c1ccccc1)N1CCN(c2ccc(-c3cnn(C)c3)cc2F)CC1` (stereo not drawn) [Compound 195, N,N-Diethyl-2-{4-[2-fluoro-4-(1-methyl-1H-pyrazol-4-yl)-phenyl]-piperazin-1-yl}-2-phenyl-acetamide], the IC50 came out at 0.9 µM.

As to `CC(=O)C(c1ccccc1)N1CCN(c2ccc(-c3nc(C(C)C)no3)cc2F)CC1` (stereo not drawn) [Compound 198, 1-{4-[2-Fluoro-4-(3-isopropyl-[1,2,4]oxadiazol-5-yl)-phenyl]-piperazin-1-yl}-1-phenyl-propan-2-one], the IC50 came out at 2.7 µM.

`CCN(CC)C(=O)C(c1ccccc1)N1CCN(c2ccc(-c3nc(C)ns3)cc2F)CC1` (stereo not drawn) [Compound 271, N,N-Diethyl-2-{4-[2-fluoro-4-(3-methyl-[1,2,4]thiadiazol-5-yl)-phenyl]-piperazin-1-yl}-2-phenyl-acetamide]: the IC50 was 0.11 µM.

As for `COC(=O)C(c1ccccc1)N1CCN(c2ccc(-c3nc(C(C)C)no3)cc2F)CC1` (stereo not drawn) [Compound 213, {4-[2-Fluoro-4-(3-isopropyl-[1,2,4]oxadiazol-5-yl)-phenyl]-piperazin-1-yl}-phenyl-acetic acid methyl ester], the IC50 was found to be 0.24 µM.

Take `CCN(CC)C(=O)C(c1ccccc1)N1CCN(c2ccc(-c3noc(C(C)(C)C)n3)cc2F)CC1` (stereo not drawn) [Compound 75, 2-{4-[4-(5-tert-Butyl-[1,2,4]oxadiazol-3-yl)-2-fluoro-phenyl]-piperazin-1-yl}-N,N-diethyl-2-phenyl-acetamide]: the IC50 is 0.6 µM.

Take `CCc1cnc(-c2ccc(N3CCN(C(C(=O)N(CC)CC)c4ccccc4)CC3)c(F)c2)o1` (stereo not drawn) [Compound 133, N,N-Diethyl-2-{4-[4-(5-ethyl-oxazol-2-yl)-2-fluoro-phenyl]-piperazin-1-yl}-2-phenyl-acetamide]: the IC50 came to 0.46 µM.

Consider `CCN(CC)C(=O)C(c1ccccc1)N1CCN(c2ccc(-c3nc(C(C)C)no3)cc2CN(C)C)CC1` (stereo not drawn) [Compound 259, 2-{4-[2-Dimethylaminomethyl-4-(3-isopropyl-[1,2,4]oxadiazol-5-yl)-phenyl]-piperazin-1-yl}-N,N-diethyl-2-phenyl-acetamide], for which the IC50 turned out to be 2.4 µM.

For `CCCc1nc(-c2ccc(N3CCN(C(C(=O)N(CC)CC)c4ccccc4)CC3)c(F)c2)no1` (stereo not drawn) [Compound 68, N,N-Diethyl-2-{4-[2-fluoro-4-(5-propyl-[1,2,4]oxadiazol-3-yl)-phenyl]-piperazin-1-yl}-2-phenyl-acetamide], the IC50 came to 0.52 µM.

Take `CCN(CC)C(=O)C(c1ccc(F)cc1)N1CCN(c2ccc(-c3nc(C)no3)cc2F)CC1` (stereo not drawn) [Compound 210, N,N-Diethyl-2-{4-[2-fluoro-4-(3-methyl-[1,2,4]oxadiazol-5-yl)-phenyl]-piperazin-1-yl}-2-(4-fluoro-phenyl)-acetamide]: the IC50 turned out to be 0.29 µM.

On to `CCN(CC)C(=O)C(c1ccccc1)N1CCN(c2ccc(-c3nc(C)n[nH]3)cc2F)CC1` (stereo not drawn) [Compound 208, N,N-Diethyl-2-{4-[2-fluoro-4-(5-methyl-2H-[1,2,4]triazol-3-yl)-phenyl]-piperazin-1-yl}-2-phenyl-acetamide], for which the IC50 was found to be 2.9 µM.

On to `CCN(CC)C(=O)C(c1ccccc1)N1CCN(c2ccc(-c3ccccc3C)cc2F)CC1` (stereo not drawn) [Compound 254, N,N-Diethyl-2-[4-(3-fluoro-2′-methyl-biphenyl-4-yl)-piperazin-1-yl]-2-phenyl-acetamide], for which the IC50 was determined as 1 µM.

Turning to `CCOC(=O)C(c1ccccc1)N1CCN(c2ccc(-c3nc(C)no3)cc2F)CC1` (stereo not drawn) [Compound 192, {4-[2-Fluoro-4-(3-methyl-[1,2,4]oxadiazol-5-yl)-phenyl]-piperazin-1-yl}-phenyl-acetic acid ethyl ester], the IC50 was found to be 0.38 µM.

Regarding `CCN(CC)C(=O)C(c1ccccc1)N1CCN(c2ccc(-c3ccc(Cl)cc3)cc2F)CC1` (stereo not drawn) [Compound 196, 2-[4-(4′-Chloro-3-fluoro-biphenyl-4-yl)-piperazin-1-yl]-N,N-diethyl-2-phenyl-acetamide], the IC50 turned out to be 0.92 µM.

`CC(C)c1noc(-c2ccc(N3CCN(C(C(=O)N4CCCC4)c4ccccc4)CC3)c(F)c2)n1` (stereo not drawn) [Compound 185, 2-{4-[2-Fluoro-4-(3-isopropyl-[1,2,4]oxadiazol-5-yl)-phenyl]-piperazin-1-yl}-2-phenyl-1-pyrrolidin-1-yl-ethanone]: the IC50 amounted to 0.12 µM.

Consider `CCN(CC)C(=O)C(c1ccccc1OC)N1CCN(c2ccc(-c3nc(C)no3)cc2C#N)CC1` (stereo not drawn) [Compound 251, 2-{4-[2-Cyano-4-(3-methyl-[1,2,4]oxadiazol-5-yl)-phenyl]-piperazin-1-yl}-N,N-diethyl-2-(2-methoxy-phenyl)-acetamide], for which the IC50 was determined as 0.49 µM.

As for `Cc1noc(-c2ccc(N3CCN(C(C(=O)N4CCC(F)(F)CC4)c4ccccc4)CC3)c(F)c2)n1` (stereo not drawn) [Compound 189, 1-(4,4-Difluoro-piperidin-1-yl)-2-{4-[2-fluoro-4-(3-methyl-[1,2,4]oxadiazol-5-yl)-phenyl]-piperazin-1-yl}-2-phenyl-ethanone], the IC50 is 0.48 µM.

As for `CCCCC(C(=O)N(CC)CC)N1CCN(c2ccc(-c3nc(C)no3)cc2F)CC1` (stereo not drawn) [Compound 199, 2-{4-[2-Fluoro-4-(3-methyl-[1,2,4]oxadiazol-5-yl)-phenyl]-piperazin-1-yl}-hexanoic acid diethylamide], the IC50 was determined as 2.8 µM.
